US8765946B2, “Methods of preparing and using quinazoline and quinoline derivatives” (priority 2006, dated 2014)

Key:
A431 cells = experiment: A431 cell growth inhibition assay (MTT assay); assay type: cell-based; settings: Homo sapiens; for EC50: A-431, 72 hours (Table 11); for inhibition at 3 µM: A-431, concentration of 3 μM, 72 hours, read-out: Inhibition Percent (%)
Protocol: A431 Cell Growth Inhibition Assay (MTT Assay)
A431, an epidermoid carcinoma cell line; The Cell Bank, Committee on Type Culture Collection Chinese Academy of Science, Shanghai.
Mix prepared medium DMEM and F12 in the proportion of 1:1, then add FBS to a final concentration of 10%.
Dissolved the dried compound sample with 100% DMSO to 2 mM. Then diluted the dissolved compound to 20 μM with cell complete growth medium.
Prior to the assay, cultured the A431 to logarithmic phase, and then removed medium from cell monolayers and wash the cells once with sterilized PBS. Aspriated the PBS and added 2 mL trypsin solution to cover the cell growth surface, removed 1 mL trypsin solution after soaking about 1 minute. Transferred the cell-culture plate to CO2 incubator; incubated at 37° C. for 8 minutes to allow cells to dissociate. After the cells detached, added 4 mL complete growth medium containing FBS with pipette to disperse them off and mixed gently to obtain a homogeneous cell suspension. Aspirated some of the cell suspension to a sterilized polypropylene tube, and determined the cell concentration by counting in a hematocytometer chamber under a microscope. Adjusted the cell concentration with growth medium to obtain 2.5×10^4 cells per milliliter.
Added 100 μL adjusted cell suspension to the 96-well cell-culture plate and occasionally mixed the cell suspension during the seeding process. After seeding cells, incubated the plate at 37° C. overnight with 5% CO2 in the CO2 incubator for cell attachment.
After the cell attachment, added 100 μL prepared compound solutions to the corresponding wells (add PBS to the ambient wells of the plate). The final compound concentrations ranged from 10 μM to 1.52 nM. Incubated the plate at 37° C. with 5% CO2 for 72 hours in the CO2 incubator.
After the exposure to the compound, removed the cell culture supernatant. Then added 100 μL 0.5 mg/mL MTT solution which dissolved in the growth medium without FBS. Incubated the plate at 37° C. with 5% CO2 for another 4 hours to allow the MTT reaction to proceed.
After the MTT reaction, discarded the MTT reaction solution. Added 100 μL DMSO to each well, and the plate was agitated on the plate shaker for several minutes to dissolve the formazan. Then, detected the absorbance at 490 nm using microplate reader.

BT474 cells = experiment: BT-474 cell growth inhibition assay (SRB assay); assay type: cell-based; settings: Homo sapiens, concentration of 3 μM, 72 h, read-out: Inhibition Percent (%)
Protocol: BT-474 Cell Growth Inhibition Assay (SRB Assay)
BT-474 human breast cancer cell lines were kindly provided by Dr. Changnian Liu, Pharmaron Beijing Co., Ltd.
BT-474 cells were cultured in 37° C., 5% CO2, saturated humidity until logarithmic phase. Discarded culture medium, washed cells once by PBS. Added 1 ml Trypsin/EDTA solution, stood at 37° C. for 5 min, allowed the cells to detach. Added culture medium, adjusted the cells density to 1×10^5 cells/ml.
Day 0, added 100 μl/well cells suspension to 96-well cell culture plates. Incubated overnight to let the cells attach completely.
Day 1, compounds (2 mM in DMSO as stock solution) was diluted to 20 μM in EMEM. Then a fourfold serial dilution was made. These diluted compounds were made as 10× reaction solutions, and the concentration of DMSO was kept at 1%.
Added 80 μl culture medium and 20 μl 10× compound reaction solution to the testing wells, or vehicle control to the control wells. Co-incubated cells with compounds for another 72 h.
Day 3, fixed cellular protein by the addition of 100 μl/well of 10% TCA (diluting from 50% TCA) at 4° C. for 1 h. Rinsed TCA using plate washer, and washed five times using distilled water. Removed the residual wash solution with a piece of absorbent paper. Added 100 μl/well 0.4% SRB solution, allowed a 15-30 min staining period. Removed the SRB, and washed the culture plates five times using 1% acetic acid. Removed the residual wash solution with a piece of absorbent paper. Air-dried the culture plates, dissolved the protein-bound dye with 100 μl/well of 10 mM Tris base solution. Shook the plates until the dye was dissolved completely.

EC50 (A431 cells) [nM]	SMILES	inhibition at 3 µM (A431 cells) [%]	inhibition at 3 µM (BT474 cells) [%]
3400	CCOc1cc2ncc(C#N)c(Nc3ccc(OCc4cccc(F)c4)c(Cl)c3)c2cc1NC(=O)C=C1CCNCC1 [Example 145, N-(4-(4-(3-fluorobenzyloxy)-3-chlorophenylamino)-3-cyano-7-ethoxyquinolin-6-yl)-2-(piperidin-4-ylidene)acetamide]	49	80
–	COc1cc2ncc(C#N)c(Nc3ccc(Oc4cccc(F)c4)c(Cl)c3)c2cc1NC(=O)C=C1CCNCC1 [Example 146, N-(4-(3-chloro-4-(3-fluorophenoxy)phenylamino)-3-cyano-7-methoxyquinolin-6-yl)-2-(piperidin-4-ylidene)acetamide]	52	85
–	COCCOc1cc2ncc(C#N)c(Nc3ccc(F)c(Cl)c3)c2cc1NC(=O)C=C1CCNCC1 [Example 149, N-(4-(3-chloro-4-fluorophenylamino)-3-cyano-7-(2-methoxyethoxy)quinolin-6-yl)-2-(piperidin-4-ylidene)acetamide]	92	53
140	C#Cc1cccc(Nc2c(C#N)cnc3cc(OCC)c(NC(=O)C=C4CCNCC4)cc23)c1 [Example 152, N-(3-cyano-7-ethoxy-4-(3-ethynylphenylamino)quinolin-6-yl)-2-(piperidin-4-ylidene)acetamide]	95	59
–	COc1cc2ncc(C#N)c(Nc3cccc(Br)c3)c2cc1NC(=O)C=C1CCNCC1 [Example 155, N-(4-(3-bromophenylamino)-3-cyano-7-methoxyquinolin-6-yl)-2-(piperidin-4-ylidene)acetamide]	90	58
–	CCOc1cc2ncc(C#N)c(Nc3ccc(F)c(Cl)c3)c2cc1NC(=O)C=C1CCN(C)CC1 [Example 156, N-(4-(3-chloro-4-fluorophenylamino)-3-cyano-7-ethoxyquinolin-6-yl)-2-(1-methylpiperidin-4-ylidene)acetamide]	89	60
–	CCOc1cc2ncc(C#N)c(Nc3ccc(F)c(Cl)c3)c2cc1NC(=O)C=C1CCN(CCOC)CC1 [Example 157, N-(4-(3-chloro-4-fluorophenylamino)-3-cyano-7-ethoxyquinolin-6-yl)-2-(1-(2-methoxyethyl)piperidin-4-ylidene)acetamide]	85	59
–	C#Cc1cccc(Nc2c(C#N)cnc3cc(OCC)c(NC(=O)C=C4CCN(C)CC4)cc23)c1 [Example 158, N-(3-cyano-7-ethoxy-4-(3-ethynylphenylamino)quinolin-6-yl)-2-(1-methylpiperidin-4-ylidene)acetamide]	90	57
–	C#Cc1cccc(Nc2c(C#N)cnc3cc(OCC)c(NC(=O)C=C4CCN(CCOC)CC4)cc23)c1 [Example 159, N-(3-cyano-7-ethoxy-4-(3-ethynylphenylamino)quinolin-6-yl)-2-(1-(2-methoxyethyl)piperidin-4-ylidene)acetamide]	83	53
–	CCOc1cc2ncc(C#N)c(Nc3ccc(OCc4ccccn4)c(Cl)c3)c2cc1NC(=O)C=C1CCN(CCOC)CC1 [Example 161, N-(4-(3-chloro-4-(pyridin-2-ylmethoxy)phenylamino)-3-cyano-7-ethoxyquinolin-6-yl)-2-(1-(2-methoxyethyl)piperidin-4-ylidene)acetamide]	49	90
–	CCOc1cc2ncc(C#N)c(Nc3ccc(OCc4cccc(F)c4)c(Cl)c3)c2cc1NC(=O)C=C1CCN(C)CC1 [Example 162, N-(4-(4-(3-fluorobenzyloxy)-3-chlorophenylamino)-3-cyano-7-ethoxyquinolin-6-yl)-2-(1-methylpiperidin-4-ylidene)acetamide]	41	91
–	COc1cc2ncc(C#N)c(Nc3ccc(OCc4ccccn4)c(Cl)c3)c2cc1NC(=O)C=C1CCN(C)CC1 [Example 197, N-(4-(3-chloro-4-(pyridin-2-ylmethoxy)phenylamino)-3-cyano-7-methoxyquinolin-6-yl)-2-(1-methylpiperidin-4-ylidene)acetamide]	–	82
–	COCCN1CCC(=CC(=O)Nc2cc3c(Nc4ccc(OCc5ccccn5)c(Cl)c4)c(C#N)cnc3cc2OC)CC1 [Example 198, N-(4-(3-chloro-4-(pyridin-2-ylmethoxy)phenylamino)-3-cyano-7-methoxyquinolin-6-yl)-2-(1-(2-methoxyethyl)piperidin-4-ylidene)acetamide]	–	86
–	CCOc1cc2ncc(C#N)c(Nc3ccc(OCc4ccccn4)c(Cl)c3)c2cc1NC(=O)C=C1CCN(CC)CC1 [Example 199, N-(4-(3-chloro-4-(pyridin-2-ylmethoxy)phenylamino)-3-cyano-7-ethoxyquinolin-6-yl)-2-(1-ethylpiperidin-4-ylidene)acetamide]	–	87
–	COCCOc1cc2ncc(C#N)c(Nc3ccc(OCc4ccccn4)c(Cl)c3)c2cc1NC(=O)C=C1CCN(C)CC1 [Example 200, N-(4-(3-chloro-4-(pyridin-2-ylmethoxy)phenylamino)-3-cyano-7-(2-methoxyethoxy)quinolin-6-yl)-2-(1-methylpiperidin-4-ylidene)acetamide]	–	90
–	CCN1CCC(=CC(=O)Nc2cc3c(Nc4ccc(OCc5ccccn5)c(Cl)c4)c(C#N)cnc3cc2OCCOC)CC1 [Example 201, N-(4-(3-chloro-4-(pyridin-2-ylmethoxy)phenylamino)-3-cyano-7-(2-methoxyethoxy)quinolin-6-yl)-2-(1-ethylpiperidin-4-ylidene)acetamide]	–	89
–	CCCN1CCC(=CC(=O)Nc2cc3c(Nc4ccc(OCc5ccccn5)c(Cl)c4)c(C#N)cnc3cc2OCCOC)CC1 [Example 202, N-(4-(3-chloro-4-(pyridin-2-ylmethoxy)phenylamino)-3-cyano-7-(2-methoxyethoxy)quinolin-6-yl)-2-(1-propylpiperidin-4-ylidene)acetamide]	–	92
–	CCOc1cc2ncc(C#N)c(Nc3ccc(OCc4cccc(F)c4)c(Cl)c3)c2cc1NC(=O)C=C1CCN(CC)CC1 [Example 206, N-(4-(4-(3-fluorobenzyloxy)-3-chlorophenylamino)-3-cyano-7-ethoxyquinolin-6-yl)-2-(1-ethylpiperidin-4-ylidene)acetamide]	–	80
–	COCCOc1cc2ncc(C#N)c(Nc3ccc(OCc4cccc(F)c4)c(Cl)c3)c2cc1NC(=O)C=C1CCN(C)CC1 [Example 208, N-(4-(4-(3-fluorobenzyloxy)-3-chlorophenylamino)-3-cyano-7-(2-methoxyethoxy)quinolin-6-yl)-2-(1-methylpiperidin-4-ylidene)acetamide]	–	83
–	CCN1CCC(=CC(=O)Nc2cc3c(Nc4ccc(OCc5cccc(F)c5)c(Cl)c4)c(C#N)cnc3cc2OCCOC)CC1 [Example 209, N-(4-(4-(3-fluorobenzyloxy)-3-chlorophenylamino)-3-cyano-7-(2-methoxyethoxy)quinolin-6-yl)-2-(1-ethylpiperidin-4-ylidene)acetamide]	–	78
–	COCCOc1cc2ncc(C#N)c(Nc3ccc(OCc4cccc(F)c4)c(Cl)c3)c2cc1NC(=O)C=C1CCN(CCOC)CC1 [Example 211, N-(4-(4-(3-fluorobenzyloxy)-3-chlorophenylamino)-3-cyano-7-(2-methoxyethoxy)quinolin-6-yl)-2-(1-(2-methoxyethyl)piperidin-4-ylidene)acetamide]	–	81
